Series [1] can be described thus: Selectivity index, ratio of CC50 for human PANC1 cells to MIC for dormant stage of Mycobacterium bovis BCG ATCC 35734. As to conditions: read-out: Selectivity Index. It counts as toxicity, cell-based, PANC-1.
Series [2] is described as follows: Selectivity index, ratio of CC50 for human HeLa cells to MIC for dormant stage of Mycobacterium bovis BCG ATCC 35734. As to conditions: read-out: Selectivity Index. It counts as toxicity, cell-based.
A short description of series [3]: Selectivity index, ratio of CC50 for human HeLa cells to MIC for active stage of Mycobacterium bovis BCG ATCC 35734. The series is classed as toxicity, cell-based. The conditions noted are these: read-out: Selectivity Index.
The test system of series [4] is Mycobacterium tuberculosis. Put plainly: Antimycobacterial activity against active stage of Mycobacterium tuberculosis H37Ra ATCC 25177 measured on day 8 by XTT reduction menadione assay. It counts as functional, organism-based. The conditions noted are these: H37Ra ATCC 25177, 192 h.
The subject of series [5] is Mycobacterium tuberculosis. Description: Antimycobacterial activity against dormant stage of Mycobacterium tuberculosis H37Ra ATCC 25177 measured on day 12 by XTT reduction menadione assay. The series is classed as functional, organism-based. The conditions noted are these: H37Ra ATCC 25177, 288 h.
The nature of series [6]: Cytotoxicity against human THP1 cells by MTT assay. The series is classed as cell-based, THP-1.
Series [7] can be described thus: Cytotoxicity against human HCT116 cells by MTT assay. The series is classed as cell-based, HCT-116.
A short description of series [8]: Cytotoxicity against human PANC1 cells by MTT assay. It counts as cell-based, PANC-1.
Series [9] is described as follows: Cytotoxicity against human HeLa cells by MTT assay. It counts as cell-based.
Series [10] in a line: Selectivity index, ratio of CC50 for human THP1 cells to MIC for active stage of Mycobacterium bovis BCG ATCC 35734. It counts as toxicity, cell-based, THP-1. As to conditions: read-out: Selectivity Index.
Series [11] is described as follows: Selectivity index, ratio of CC50 for human HCT116 cells to MIC for active stage of Mycobacterium bovis BCG ATCC 35734. It counts as toxicity, cell-based, HCT-116. The conditions noted are these: read-out: Selectivity Index.
A short description of series [12]: Selectivity index, ratio of CC50 for human PANC1 cells to MIC for active stage of Mycobacterium bovis BCG ATCC 35734. It counts as toxicity, cell-based, PANC-1. The conditions noted are these: read-out: Selectivity Index.
A short description of series [13]: Selectivity index, ratio of CC50 for human THP1 cells to MIC for dormant stage of Mycobacterium bovis BCG ATCC 35734. As to conditions: read-out: Selectivity Index. It counts as toxicity, cell-based, THP-1.
Series [14] in a line: Selectivity index, ratio of CC50 for human HCT116 cells to MIC for dormant stage of Mycobacterium bovis BCG ATCC 35734. It counts as toxicity, cell-based, HCT-116. The conditions noted are these: read-out: Selectivity Index.

Ten compounds from ChEMBL document CHEMBL3822409, “Synthesis and antitubercular activity of new 1,3,4-oxadiazoles bearing pyridyl and thiazolyl scaffolds” (Bioorg Med Chem Lett, 2016) can be followed below.

Structures are written as SMILES. Values after ≈ are worked out from the molar mass of the structure shown.

Regarding `Cc1ccc(-c2nnc(-c3sc(-c4cccnc4)nc3C)o2)cc1`, the selectivity ratio in series [1], in series [2], in series [3], in series [10], in [11] and in [12] was 3 in each case. Besides, the selectivity ratio in [13] and in [14] was 3 each time. The IC50 in [4] and in [5] was greater than 30 µg/mL throughout. In addition, the MIC in [4] and in series [5] was greater than 30 µg/mL throughout. Further, the cytotoxic concentration (CC50) in series [6], in [7], in series [8] and in [9] was greater than 100 µg/mL in each case.

Take `Cc1cccc(-c2nnc(-c3sc(-c4cccnc4)nc3C)o2)c1`: the selectivity ratio in [1], in series [2], in series [3], in [10], in [11] and in series [12] was 3 each time. In addition, the selectivity ratio in series [13] and in series [14] was 3 throughout. The IC50 in series [4] and in [5] was greater than 30 µg/mL each time. Further, the MIC in series [4] and in [5] was greater than 30 µg/mL each time. For the same compound, the CC50 in series [6], in [7], in series [8] and in series [9] was greater than 100 µg/mL in each case.

With `Cc1nc(-c2cccnc2)sc1-c1nnc(-c2cccnc2)o1`, the selectivity ratio in [1] was 1; in [2], 1; in series [3] it was 2; in [10], 2; in series [11] it was 2; in [12], 2. For the same compound, the selectivity ratio in [13] and in series [14] was 1 in each case. Further, the IC50 in series [4] and in series [5] was greater than 30 µg/mL each time. Also, the minimum inhibitory concentration (MIC) in series [4] and in series [5] was greater than 30 µg/mL in each case. Moreover, the CC50 in [6], in series [7], in series [8] and in series [9] was greater than 100 µg/mL throughout.

Take `Cc1nc(-c2cccnc2)sc1-c1nnc(-c2ccc([N+](=O)[O-])cc2)o1`: the selectivity ratio in series [1], in series [2], in series [3], in series [10], in series [11] and in [12] was 3 throughout. Also, the selectivity ratio in series [13] and in series [14] was 3 each time. In addition, the IC50 in series [4] and in [5] was greater than 30 µg/mL in each case. Besides, the minimum inhibitory concentration (MIC) in series [4] and in series [5] was greater than 30 µg/mL throughout. For the same compound, the CC50 in series [6], in series [7], in [8] and in [9] was greater than 100 µg/mL throughout.

With `CO[C@H]1/C=C/O[C@@]2(C)Oc3c(C)c(O)c4c(O)c(c(/C=N/N5CCN(C)CC5)c(O)c4c3C2=O)NC(=O)/C(C)=C\C=C\[C@H](C)[C@H](O)[C@@H](C)[C@@H](O)[C@@H](C)[C@H](OC(C)=O)[C@@H]1C` [RIFAMPIN], the selectivity ratio in [1] was found to be 714; in series [2] it was 714; in series [3] it was 1250; in [10], 1250; in [11] it was 1250; in series [12] it was 1250. Besides, the selectivity ratio in series [13] and in series [14] was 714 throughout. Further, the minimal inhibitory concentration (MIC) in [4] was 0.02 µg/mL (≈ 0.0243 µM); in series [5] it was 0.03 µg/mL (≈ 0.0365 µM). In addition, half-maximal inhibition in [5] (IC50) was put at 0.0024 µg/mL (≈ 0.00292 µM). The cytotoxic concentration (CC50) in series [6], in series [7], in series [8] and in [9] was greater than 100 µg/mL in each case.

`Cc1nc(-c2cccnc2)sc1-c1nnc(-c2ccc(Br)cc2)o1`: the selectivity ratio in series [1], in series [2], in [3], in series [10], in series [11] and in series [12] was 3 each time. For the same compound, the selectivity ratio in series [13] and in series [14] was 3 throughout. Further, the IC50 in series [4] and in series [5] was greater than 30 µg/mL throughout. The minimal inhibitory concentration (MIC) in series [4] and in series [5] was greater than 30 µg/mL in each case. In addition, the CC50 in [6], in series [7], in series [8] and in [9] was greater than 100 µg/mL each time.

In the case of `Cc1nc(-c2cccnc2)sc1-c1nnc(-c2ccncc2)o1`, the selectivity ratio in series [1], in series [2], in series [3], in series [10], in series [11] and in [12] was 2 in each case. The selectivity ratio in series [13] and in [14] was 2 each time. Further, the concentration for half-maximal inhibition (IC50) in [4] and in series [5] was greater than 30 µg/mL throughout. For the same compound, the minimum inhibitory concentration (MIC) in series [4] and in [5] was greater than 30 µg/mL each time. Besides, the CC50 in [6], in series [7], in series [8] and in series [9] was greater than 100 µg/mL each time.

Turning to `Cc1nc(-c2cccnc2)sc1-c1nnc(-c2ccc(O)cc2)o1`, the selectivity ratio in [1], in series [2], in series [3], in series [10], in series [11] and in series [12] was 3 each time. Further, the selectivity ratio in [13] and in [14] was 3 each time. For the same compound, the IC50 in series [4] and in series [5] was greater than 30 µg/mL in each case. For the same compound, the minimal inhibitory concentration (MIC) in series [4] and in series [5] was greater than 30 µg/mL throughout. Further, the CC50 in series [6], in [7], in [8] and in series [9] was greater than 100 µg/mL throughout.

For `Cc1nc(-c2cccnc2)sc1-c1nnc(-c2ccccc2[N+](=O)[O-])o1`, the selectivity ratio in [1] is 17; in [2], 17; in series [3], 39; in series [10], 39; in series [11], 39; in [12], 39. Also, the selectivity ratio in [13] and in series [14] was 17 in each case. For the same compound, the IC50 in [4] and in [5] was greater than 30 µg/mL each time. Moreover, the MIC in series [4] and in [5] was greater than 30 µg/mL each time. Also, the CC50 in [6], in series [7], in [8] and in [9] was greater than 100 µg/mL each time.

As for `CC(=O)O[C@H]1C(=O)[C@@]2(C)[C@H]([C@H](OC(=O)c3ccccc3)[C@]3(O)C[C@H](OC(=O)[C@H](O)[C@@H](NC(=O)c4ccccc4)c4ccccc4)C(C)=C1C3(C)C)[C@]1(OC(C)=O)CO[C@@H]1C[C@@H]2O` [PACLITAXEL], the CC50 came out at 0.137 µg/mL (≈ 0.161 µM) in series [6], 1.85 µg/mL (≈ 2.17 µM) in series [7], 0.128 µg/mL (≈ 0.15 µM) in series [8] and 0.0048 µg/mL (≈ 0.00562 µM) in series [9].
